Legend:
[1] = after administration; cited from earlier work
[2] = test system: histamine-induced flare response; conditions: after oral administration; cited from earlier work
H1R = conditions: cited from earlier work
human H1R = human H1R (Homo sapiens, UniProt P35367); experiment: Binding rate constants of [3H]levocetirizine; conditions: four concentrations (1–35 nM), 360 min, 37 °C
human H1R, sequence (P35367 whole entry): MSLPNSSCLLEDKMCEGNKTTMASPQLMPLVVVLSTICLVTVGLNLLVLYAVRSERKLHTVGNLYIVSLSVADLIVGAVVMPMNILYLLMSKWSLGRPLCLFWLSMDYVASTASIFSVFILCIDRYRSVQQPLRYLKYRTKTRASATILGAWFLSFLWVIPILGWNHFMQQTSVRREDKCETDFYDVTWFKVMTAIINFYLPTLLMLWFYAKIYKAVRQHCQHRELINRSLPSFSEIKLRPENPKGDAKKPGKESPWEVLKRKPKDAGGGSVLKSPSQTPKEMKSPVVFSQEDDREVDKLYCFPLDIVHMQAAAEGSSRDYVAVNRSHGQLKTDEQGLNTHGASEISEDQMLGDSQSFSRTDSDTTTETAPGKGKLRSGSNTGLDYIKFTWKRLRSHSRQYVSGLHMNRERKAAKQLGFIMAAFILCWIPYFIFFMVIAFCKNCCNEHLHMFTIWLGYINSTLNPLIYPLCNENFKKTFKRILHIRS

Cc1cncc(CN2CCC(=C3c4ccc(Cl)cc4CCc4cccnc43)CC2)c1 [Compound 1, rupatadine]
time up to which plasma levels could be detected [1]: up to 12 h | duration of antagonism of the histamine-induced flare response [2]: up to 72 h

O=C(O)COCCN1CCN([C@H](c2ccccc2)c2ccc(Cl)cc2)CC1 [levocetirizine]
fold longer residence time at the H1R than mepyramine (H1R): 100 fold

(R)-5-(4-((4-Chlorophenyl)([4-^3H]phenyl)methyl)piperazin-1-yl)pentanoic Acid [[^3H]levocetirizine]
koff (human H1R): 0.022 ± 0.003 min^–1 | kon (human H1R): 3.7 ± 0.4 10^6 min^–1 M^–1
